Laboratory results reported in PubChem BioAssay (NCI).
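Tested at 5 concentrations; 48 h exposure; 96-well plates; endpoints linearly interpolated, else capped at highest concentration. GI50 = concentration required for 50% inhibition of growth. The concentration for full growth arrest is given as TGI.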

Tests used:
Test in all cases: NCI-60 cell line screen, 48 h
MDA-MB-468 breast = tested on: MDA-MB-468 breast
A498 renal = tested on: A498 renal
CAKI-1 renal = tested on: CAKI-1 renal
CCRF-CEM leukemia = tested on: CCRF-CEM leukemia
DU-145 prostate = tested on: DU-145 prostate
HCT-15 colon = tested on: HCT-15 colon
HL-60(TB) leukemia = tested on: HL-60(TB) leukemia
HOP-92 NSCLC = tested on: HOP-92 NSCLC
HS 578T breast = tested on: HS 578T breast
IGROV1 ovarian = tested on: IGROV1 ovarian
MALME-3M melanoma = tested on: MALME-3M melanoma
MDA-MB-231 breast = tested on: MDA-MB-231 breast
MDA-MB-435 = tested on: MDA-MB-435
MOLT-4 leukemia = tested on: MOLT-4 leukemia
NCI-H226 lung = tested on: NCI-H226 lung
NCI-H460 lung = tested on: NCI-H460 lung
NCI/ADR-RES ovarian = tested on: NCI/ADR-RES ovarian
OVCAR-3 ovarian = tested on: OVCAR-3 ovarian
RXF 393 renal = tested on: RXF 393 renal
SF-295 CNS = tested on: SF-295 CNS
SK-MEL-2 melanoma = tested on: SK-MEL-2 melanoma
SK-MEL-5 melanoma = tested on: SK-MEL-5 melanoma
SN12C renal = tested on: SN12C renal
SNB-75 CNS = tested on: SNB-75 CNS
SR leukemia = tested on: SR leukemia
SW-620 colon = tested on: SW-620 colon
UACC-257 melanoma = tested on: UACC-257 melanoma
UACC-62 melanoma = tested on: UACC-62 melanoma
UO-31 renal = tested on: UO-31 renal

Work on `CCc1nc(C)cn1C(=O)OCc1nc2nc(Cl)nc(N3CCOCC3)c2[nH]1` yielded a GI50 (MDA-MB-468 breast) of 925 nM and a TGI (MDA-MB-468 breast) of 2460 nM.

For `COC(=O)[C@]12CC[C@@H](C)[C@H](C)[C@@H]1C1=CC[C@@H]3[C@@]4(C)C(C=O)=C[C@@](C)(CO)[C@@H]4[C@H](O)C[C@@]3(C)[C@]1(C)CC2`, the GI50 (MDA-MB-468 breast) was 4360 nM and the TGI (MDA-MB-468 breast) was 18900 nM.

Work on `C=C1c2nc3ccccc3n2C=C(c2cccc(Cl)c2)N1Cc1ccc(OC)cc1` yielded a GI50 (MDA-MB-468 breast) of 784 nM and a TGI (MDA-MB-468 breast) of 17200 nM.

`Brc1ccccc2cc(-c3ccccc3)nc1-2` was tested, and the GI50 (MDA-MB-468 breast) was 4700 nM and the TGI (MDA-MB-468 breast) was > 56600 nM.

`CCN1CCN(c2nc(C)cc(NCc3cc(Nc4ccnc5cc(Cl)ccc45)ccc3F)n2)CC1` was tested, and the GI50 (MDA-MB-468 breast) was 1550 nM and the TGI (MDA-MB-468 breast) was 3510 nM.

Work on `Cn1ncc(C#N)c1-c1ccc2c(c1)CN([C@H](CN)Cc1cccc(F)c1)C2=O` yielded a GI50 (MDA-MB-468 breast) of 105 nM and a TGI (MDA-MB-468 breast) of 2970 nM.

`COc1cccc2c1C(=O)c1c(O)c3c(c(O)c1C2=O)C[C@@](O)(/C(CO)=N/NC(=O)CCCCCN1C(=O)C=CC1=O)C[C@@H]3O[C@H]1C[C@H](N)[C@H](O)[C@H](C)O1` gave a GI50 (MDA-MB-468 breast) of 438 nM and a TGI (MDA-MB-468 breast) of 2750 nM.

Molecule `O=C(Oc1ccccc1)N(c1ccccc1)c1ccccc1` has a GI50 (MDA-MB-468 breast) of 24000 nM and a TGI (MDA-MB-468 breast) of 87700 nM.

With `Cc1ccc(C(C)C)cc1Oc1cccc(-c2c(-c3ccc(C(F)(F)F)cc3)ncn2C2CCNCC2)n1` the GI50 (A498 renal) was 1570 nM, the TGI (A498 renal) was 3050 nM and the GI50 (CAKI-1 renal) was 1420 nM. For the same molecule, the TGI (CAKI-1 renal) was 2850 nM, the GI50 (CCRF-CEM leukemia) was 2260 nM and the TGI (CCRF-CEM leukemia) was 27900 nM. The GI50 (DU-145 prostate) was 1680 nM, the TGI (DU-145 prostate) was 3100 nM and the GI50 (HCT-15 colon) was 1360 nM. It also gave a TGI (HCT-15 colon) of 2690 nM, a GI50 (HL-60(TB) leukemia) of 1050 nM and a TGI (HL-60(TB) leukemia) of 3360 nM. The GI50 (HOP-92 NSCLC) was 1350 nM, the TGI (HOP-92 NSCLC) was 2840 nM and the GI50 (HS 578T breast) was 1680 nM. It also gave a TGI (HS 578T breast) of 3670 nM, a GI50 (IGROV1 ovarian) of 1340 nM and a TGI (IGROV1 ovarian) of 2670 nM. The GI50 (MALME-3M melanoma) was 1430 nM, the TGI (MALME-3M melanoma) was 2770 nM and the GI50 (MDA-MB-231 breast) was 1480 nM. The TGI (MDA-MB-231 breast) was 2810 nM, the GI50 (MDA-MB-435) was 1700 nM and the TGI (MDA-MB-435) was 3190 nM. For the same molecule, the GI50 (MDA-MB-468 breast) was 1330 nM, the TGI (MDA-MB-468 breast) was 2730 nM and the GI50 (MOLT-4 leukemia) was 1690 nM. For the same molecule, the TGI (MOLT-4 leukemia) was 4440 nM, the GI50 (NCI-H226 lung) was 1480 nM and the TGI (NCI-H226 lung) was 3010 nM. The GI50 (NCI-H460 lung) was 1630 nM, the TGI (NCI-H460 lung) was 3080 nM and the GI50 (NCI/ADR-RES ovarian) was 1600 nM. For the same molecule, the TGI (NCI/ADR-RES ovarian) was 3190 nM, the GI50 (OVCAR-3 ovarian) was 1800 nM and the TGI (OVCAR-3 ovarian) was 3280 nM. The GI50 (RXF 393 renal) was 1340 nM, the TGI (RXF 393 renal) was 2720 nM and the GI50 (SF-295 CNS) was 1530 nM. It also gave a TGI (SF-295 CNS) of 2970 nM, a GI50 (SK-MEL-2 melanoma) of 1820 nM and a TGI (SK-MEL-2 melanoma) of 3470 nM. It also gave a GI50 (SK-MEL-5 melanoma) of 1610 nM, a TGI (SK-MEL-5 melanoma) of 2990 nM and a GI50 (SN12C renal) of 1350 nM. For the same molecule, the TGI (SN12C renal) was 2660 nM, the GI50 (SNB-75 CNS) was 1300 nM and the TGI (SNB-75 CNS) was 2680 nM. For the same molecule, the GI50 (SR leukemia) was 1610 nM, the TGI (SR leukemia) was 4130 nM and the GI50 (SW-620 colon) was 1470 nM. It also gave a TGI (SW-620 colon) of 2910 nM, a GI50 (UACC-257 melanoma) of 1750 nM and a TGI (UACC-257 melanoma) of 3400 nM. It also gave a GI50 (UACC-62 melanoma) of 1440 nM, a TGI (UACC-62 melanoma) of 2760 nM and a GI50 (UO-31 renal) of 1330 nM. The TGI (UO-31 renal) was 2630 nM.
